Experimental data published in article PMC9412362, “Design, Synthesis, and Characterization of Novel Coordination Compounds of Benzimidazole Derivatives with Cadmium” (Pharmaceutics, 2022).
Values after ≈ are worked out from the molar mass of the structure shown. Like-named read-outs stand apart in the source and are kept apart here.

Tests used:
SK-N-AS cells = assay: MTT cytotoxicity assay, neuroblastoma SK-N-AS; format: cell-based, human; conditions: MTT assay after 24 h of incubation, read-out: IC50 ± SD, SK-N-AS
Protocol: (§1) Samples of complexes (about 20 mg) were digested in a concentrated mixture of 36% HCl (1 mL) and 65% HNO3 (6 mL). The contents of Cd (II) in the solid complexes were determined with an F-AAS spectrometer (Analytik Jena, contraAA 300, Jena, Germany) with a continuous source of light and using an air/acetylene flame (Analytik Jena, contraAA 300). Absorbances were measured at the analytical spectral lines at 228.8 nm for Cd (II). The limit of quantification was 0.004 mg/L for Cd (II). The solid samples were decomposed using an Anton Paar Multiwave 3000 (Graz, Austria) closed-system instrument. Mineralization was carried out for 45 min at 240 °C under a pressure of 60 bar. The contents of carbon, hydrogen, and nitrogen were determined with an instrument from Vario Micro Company Elementar Analysensysteme GmbH (Langenselbold, Germany). FTIR spectra were recorded with an IR Tracer-100 Schimadzu Spectrometer (4000–600 cm^−1 with an accuracy of recording of 1 cm^−1, Kyoto, Japan) using KBr pellets. The thermal analyses were carried out with a Netzsch STA 449 F1 Jupiter thermoanalyzer (Netzsch-Geratebau GmbH, Selb, Germany) coupled with a Netzsch Aeolos Quadro QMS 403 mass spectrometer (Netzsch-Geratebau GmbH, Selb, Germany). The samples were heated up to 1000 °C in corundum crucibles with a heating rate of 10 °C/min in an atmosphere of synthetic air (20% O2, 80% N2). The cytotoxic effects of the compounds were evaluated using glioblastoma (T98G), neuroblastoma (SK-N-AS), and lung adenocarcinoma (A549) cell lines and normal human skin fibroblasts (CCD-1059Sk). T98G and SK-N-AS cells were cultured in high-glucose DMEM and A549 cells were cultured in DMEM/F12, while CCD-1059Sk cells were cultured in MEM. All media were supplemented with 10% (FBS), 100 U/mL of penicillin, and […] of streptomycin (PenStrep). Cells were incubated at 37 °C in a humidified atmosphere of 5% CO2. Stock solutions were prepared by dissolving the compounds in sterile dimethyl sulfoxide (DMSO) to obtain a concentration of 50 mg/mL. The cells were seeded into sterile 96-well plates (Nunc) at a density of 1 × 10^5 cells/mL. After 24 h of incubation, the medium was removed from each well, and then the cells were incubated for the next 24 h with different concentrations of the tested compounds (1–100 µg/mL) in their respective media containing 2% FBS. The cytotoxicity of the compounds was evaluated using an MTT assay, which was based on the conversion of 3-(4,5-dimethylthiazol-2-yl)-2,5-diphenyltetrazolium bromide (MTT) into dark-blue formazan crystals. Briefly, after 24 h of incubation of the cells with varying concentrations of the tested compounds, all culture media were removed from the plates. The cells were washed with PBS, and then 100 µL of medium containing 10% MTT solution (5 mg/mL) was added to each well. After 3 h of incubation, 100 µL (per well) of 10% SDS buffer solution was added to solubilize the formazan crystals. After overnight incubation, the absorbance was measured at 570 nm using a microplate reader (Epoch, BioTek Instruments). Experiments were repeated twice, and the measurements in each experiment were run in triplicate. The viability of the investigated cells was expressed as the percentage of the viability of the untreated cells, and the results were transformed into IC50 values (expressed as mean ± SD). The complexes were screened for antibacterial and antifungal activity by using the micro-dilution broth method with Mueller–Hinton broth for the growth of bacteria or Mueller–Hinton broth with 2% glucose for the growth of fungi. […]

CCD-1059Sk cells = assay: MTT cytotoxicity assay, normal human skin fibroblasts CCD-1059Sk; format: cell-based; conditions: normal human fibroblasts CCD-1059Sk, MTT assay after 24 h of incubation; read-out: IC50 ± SD, CCD-1059-Sk
Protocol: as §1

A549 cells = assay: MTT cytotoxicity assay, lung adenocarcinoma A549; format: cell-based, human; conditions: Homo sapiens; lung carcinoma A549, MTT assay after 24 h of incubation; read-out: IC50 ± SD, A549
Protocol: as §1

T98G cells = assay: MTT cytotoxicity assay, glioblastoma T98G; format: cell-based, human; conditions: Homo sapiens, MTT assay after 24 h of incubation, read-out: IC50 ± SD, T98G
Protocol: as §1

E. coli ATCC 25922 = assay: MIC, micro-dilution broth method; format: cell-based, Escherichia coli; conditions: Escherichia coli, ATCC25922, Gram-negative bacteria
Protocol: as §1

[1] = system: C. parapsilosis ATCC 22019; assay: MIC, micro-dilution broth method; format: cell-based, Candida parapsilosis; conditions: Yeasts, micro-dilution broth with 2% glucose
Protocol: as §1

B. subtilis ATCC 6633 = assay: MIC, micro-dilution broth method; format: cell-based, Bacillus subtilis; conditions: Bacillus subtilis
Protocol: as §1

[2] = system: S. epidermidis ATCC 12228; assay: MIC, micro-dilution broth method; format: cell-based, Staphylococcus epidermidis; conditions: Staphylococcus epidermidis
Protocol: as §1

P. aeruginosa ATCC 9027 = assay: MIC, micro-dilution broth method; format: cell-based, Pseudomonas aeruginosa; conditions: Pseudomonas aeruginosa, ATCC9027, Gram-negative bacteria
Protocol: as §1

B. cereus ATCC 10876 = assay: MIC, micro-dilution broth method; format: cell-based, Bacillus cereus; conditions: Bacillus cereus
Protocol: as §1

P. mirabilis ATCC 12453 = assay: MIC, micro-dilution broth method; format: cell-based, Proteus mirabilis; conditions: Proteus mirabilis, ATCC12453, Gram-negative bacteria
Protocol: as §1

E. faecalis ATCC 29212 = assay: MIC, micro-dilution broth method; format: cell-based, Enterococcus faecalis; conditions: Enterococcus faecalis
Protocol: as §1

C. albicans ATCC 102231 = assay: MIC, micro-dilution broth method; format: cell-based, Candida albicans
Protocol: as §1

[3] = system: S. typhimurium ATCC 14028; assay: MIC, micro-dilution broth method; format: cell-based, Salmonella Typhimurium; conditions: Salmonella enterica, Gram-negative bacteria
Protocol: as §1

M. luteus ATCC 10240 = assay: MIC, micro-dilution broth method; format: cell-based, Micrococcus luteus; conditions: Micrococcus luteus
Protocol: as §1

K. pneumoniae ATCC 13883 = assay: MIC, micro-dilution broth method; format: cell-based, Klebsiella pneumoniae; conditions: Klebsiella pneumoniae, ATCC13883, Gram-negative bacteria
Protocol: as §1

S. aureus ATCC 25923 = assay: MIC, micro-dilution broth method; format: cell-based, Staphylococcus aureus; conditions: Staphylococcus aureus
Protocol: as §1

C. glabrata ATCC 2091 = assay: MIC, micro-dilution broth method; format: cell-based
Protocol: as §1

[4] = Yeasts, micro-dilution broth with 2% glucose

COc1cc([C@@H]2c3cc4c(cc3[C@@H](O[C@@H]3O[C@@H]5CO[C@@H](C)O[C@H]5[C@H](O)[C@H]3O)[C@H]3COC(=O)[C@H]23)OCO4)cc(OC)c1O [Etoposide, reference compound]
IC50 (SK-N-AS cells; Homo sapiens, SK-N-AS, 24 h): 115 µM | IC50 (SK-N-AS cells): 115 ± 3.5 µM | IC50 (CCD-1059Sk cells): > 170 µM | IC50 (A549 cells): > 170 µM | IC50 (T98G cells): > 170 µM

c1cc(-c2nc3ccncc3[nH]2)ccn1 [L1]
IC50 (SK-N-AS cells; Homo sapiens, SK-N-AS, 24 h): > 509 µM | MIC (E. coli ATCC 25922): > 1000 µg/mL | MIC ([1]; Lodderomyces parapsilosis, ATCC22019): > 1000 µg/mL | IC50 (CCD-1059Sk cells): > 509 µM | MIC (B. subtilis ATCC 6633; ATCC6633, Gram-positive bacteria, micro-dilution broth, read-out: MIC, B. subtilis ATCC 6633): > 1000 µg/mL | MIC ([2]; ATCC12228, Gram-positive bacteria, micro-dilution broth, read-out: MIC, S. epidermidis ATCC 12228): > 1000 µg/mL | MIC (P. aeruginosa ATCC 9027): > 1000 µg/mL | IC50 (A549 cells): > 509 µM | MIC (B. cereus ATCC 10876; ATCC10876, Gram-positive bacteria, micro-dilution broth, read-out: MIC, B. cereus ATCC 10876): > 1000 µg/mL | MIC (P. mirabilis ATCC 12453): > 1000 µg/mL | MIC (E. faecalis ATCC 29212; ATCC29212, Gram-positive bacteria, micro-dilution broth, read-out: MIC, E. faecalis ATCC 29212): > 1000 µg/mL | MIC (C. albicans ATCC 102231; Candida albicans, ATCC102231, read-out: MIC, C. albicans ATCC 102231): > 1000 µg/mL | MIC [3]: > 1000 µg/mL | MIC (M. luteus ATCC 10240; ATCC10240, Gram-positive bacteria, micro-dilution broth, read-out: MIC, M. luteus ATCC 10240): 500 µg/mL (≈ 2550 µM) | MIC (K. pneumoniae ATCC 13883): > 1000 µg/mL | IC50 (T98G cells): 210 ± 12 µM | MIC (S. aureus ATCC 25923; ATCC25923, Gram-positive bacteria, micro-dilution broth, read-out: MIC, S. aureus ATCC 25923): > 1000 µg/mL | MIC (C. glabrata ATCC 2091; Nakaseomyces glabratus, ATCC2091, read-out: MIC, C. glabrata ATCC 2091): > 1000 µg/mL

C[C@@H]1[C@H](O)[C@@H](C)/C=C/C=C/CC/C=C/C=C/C=C/C=C/C(O[C@H]2O[C@H](C)[C@@H](O)[C@H](N)[C@@H]2O)CC2O[C@](O)(CC(O)C(O)CCC(O)CC(O)CC(O)CC(=O)O[C@H]1C)CC(O)C2C(=O)O (some centres unmarked) [Nys, nystatin, reference compound]
MIC, C. parapsilosis ATCC 22019 [1]: 0.24 mg/L (≈ 0.259 µM) | MIC, C. albicans ATCC 102231 (C. albicans ATCC 102231; [4]): 0.24 mg/L (≈ 0.259 µM) | MIC, C. glabrata ATCC 2091 (C. glabrata ATCC 2091; [4]): 0.48 mg/L (≈ 0.518 µM)

CN[C@H](CC(C)C)C(=O)N[C@H]1C(=O)N[C@@H](CC(N)=O)C(=O)N[C@H]2C(=O)N[C@H]3C(=O)N[C@H](C(=O)N[C@H](C(=O)O)c4cc(O)cc(O)c4-c4cc3ccc4O)[C@H](O)c3ccc(c(Cl)c3)Oc3cc2cc(c3O[C@@H]2O[C@H](CO)[C@@H](O)[C@H](O)[C@H]2O[C@H]2C[C@](C)(N)[C@H](O)[C@H](C)O2)Oc2ccc(cc2Cl)[C@H]1O [Van, Vancomycin, reference compound]
MIC (B. subtilis ATCC 6633; ATCC6633, read-out: MIC, B. subtilis ATCC 6633): 0.24 µg/mL (≈ 0.166 µM) | MIC ([2]; ATCC12228, read-out: MIC, S. epidermidis ATCC 12228): 0.98 µg/mL (≈ 0.676 µM) | MIC (B. cereus ATCC 10876; ATCC10876, read-out: MIC, B. cereus ATCC 10876): 0.98 µg/mL (≈ 0.676 µM) | MIC (E. faecalis ATCC 29212; ATCC29212, read-out: MIC, E. faecalis ATCC 29212): 1.95 µg/mL (≈ 1.35 µM) | MIC (M. luteus ATCC 10240; ATCC10240, read-out: MIC, M. luteus ATCC 10240): 0.12 µg/mL (≈ 0.0828 µM) | MIC (S. aureus ATCC 25923; ATCC25923, read-out: MIC, S. aureus ATCC 25923): 0.98 µg/mL (≈ 0.676 µM)
